Laboratory results taken from PMC5896778 (Developmental cell, 2018).

Assays:
[1] = test system: MT formation at Golgi fragments in HCMV-infected NHDFs; experiment: Nocodazole washout assay, MT nucleation; format: cell-based, human; details: 10µM nocodazole for 8h, mock or AD169-infected NHDFs, 3d
[2] = test system: CDK activity and EB3 abundance in HCMV AD169-infected NHDFs; details: 3 µM

SMILES | effect on MTs, Golgi and AC structures [1] | effect on IE2 expression ([2]; AD169 MOI 3, WB) | CDK substrate phosphorylation and increases in EB3 abundance by 3d.p.i. ([2]; daily inhibitor replenishment, AD169 MOI 3, 3d.p.i.) | effect on HCMV-induced CDK activation (pan-CDK1 substrate antibody) ([2]; replaced every 24h, AD169 MOI 3, WB) | effect on HCMV-induced increases in EB3 ([2]; replaced every 24h, AD169 MOI 3, WB, 1 and 2 d.p.i.)
COC(=O)Nc1nc2ccc(C(=O)c3cccs3)cc2[nH]1 [nocodazole] | depolymerized MTs and dispersed Golgi and AC structures |  |  |  | 
Nc1nc(Nc2ccc(S(N)(=O)=O)cc2)nn1C(=O)c1c(F)cccc1F [JNJ-7706621] |  | modestly affected IE2 expression | insensitive | suppressed HCMV-induced CDK activation | prevented increases in EB3 at 1 and 2 d.p.i.
